Experimental data published in patent publication US8354438B2, “Neurological functions” (priority 2001, dated 2013).
Several values for one entry are separate records, joined by “and”; a condition that tells them apart may be missing. Equal values may be shown once.

How the values were obtained:
[1] = tested on: animals subject to hyperbaric oxygen; settings: reported by Bondarenko; cited from earlier work
carnosinase = settings: compared with the parent compound carnosine; Boldyrev 2000; cited from earlier work
[2] = tested on: patients with autism, pervasive developmental disorder, brain injury, cerebral palsy and epilepsy; assay: Carnosine dietary supplement to improve cognitive functions impaired by neurological disorders (Example 2); format: in vivo, human; settings: carnosine 200 mg to 2,000 mg per day, orally
Method: It is hypothesized that carnosine may improve cognitive functions of patients suffering from various disorders. These disorders include autism, pervasive developmental disorder, brain injury, cerebral palsy and epilepsy. There are currently no drugs or treatments available whose primary function is to elevate carnosine levels as a treatment for the previously mentioned disorders. Patients afflicted with the above disorders were treated with a dietary supplement of carnosine in dosages of 200 mg to 2,000 mg per day. The carnosine supplement is available in gel capsule form from Alfa Chem (Kings Point, N.Y.).
The carnosine supplement can be administered orally several times daily. The results indicated an increase in cognitive processing speed, an increase in language skills, and improved motor skills. Patients have increased their amount of speech and language and the level of maturity of speech.

[3] = tested on: children with intractable seizures; assay: L-carnosine add-on therapy in children with intractable seizures, EEG and seizure frequency (Example 3); format: in vivo, human; settings: after 10 weeks at 400 mg p.o. b.i.d.
Source text: L-carnosine is an amino acid dipeptide (histidine and alanine), that may indirectly affect spike and wave discharges by altering GABA bioavailability or affecting copper and zinc influx at the cellular level. […] We hypothesized that carnosine ingestion would modulate homocarnosine in the brain, causing spike and wave activity to decrease and seizure control to improve. We gave L-carnosine to four patents as add-on therapy for intractable spike-wave discharge and documented changes in both clinical (overt seizures) and physiological (EEG) status.
Seven children (3 female, 4 male, age range 2-12) met inclusion criteria. All had intractable seizures for at least two years, had failed at least 3 anticonvulsants, had documented, abnormal generalized or secondarily generalized spike-wave, atypical absence, or Lennox-Gastaut Syndrome. All families signed written consent from an IRB approved protocol. All children were evaluated with a Baseline EEG on the same day they were started on 400 mg b.i.d. of L-carnosine. Carnosine from, for example, Alfa Chem in either powder or capsule form. Carnosine may also be obtained from MAYPRO (Purchase, N.Y.), as well as various other suppliers. Post-treatment EEG was undertaken after 10 weeks of L-carnosine therapy. No other concurrent medications were changed. All patients had failed multiple medication treatments prior to the addition of carnosine. These medications included valproic acid, topimirate, benzodiazepines, steroids, carbamazepine, phenytoin, zonisamide, lamotrigine, and phenobarbital.

[4] = tested on: children with Autistic Spectrum Disorder; assay: 8 week double-blind placebo-controlled carnosine study in children with Autistic Spectrum Disorder (Example 4); format: in vivo, human; settings: for Fax ratings (week 2 vs. week 6): on carnosine 400 mg twice a day, Mean (SD)
Source text: The following protocol was designed to target the purported brain region of dysfunction in ASD, via supplementation with a naturally-occurring amino acid which is believed to act upon frontal lobe systems or GABA receptors. We sought to eliminate the “expectancy effect” of medication augmentation by enrolling children in a study so that both the clinicians and parents were blinded to group assignment.
Children were included for study if they met the following criteria: ages 3-12, prior diagnoses of Autistic Spectrum Disorder (including either Pervasive Developmental Disorder or Autistic Disorder, by DSMIVR). American Psychiatric Association. Diagnostic and Statistical Manual of Mental Disorders, 4th ed. Washington D.C., 1993. […] Children were enrolled in the study irrespective of cognitive ability level.
All children were tested at baseline in the following domains: expressive language (Expressive One Word Picture Vocabulary test, EOWPVT), receptive language (Receptive One Word Picture Vocabulary test, ROWPVT), autism severity ratings (Childhood Autism Rating Scale; CARS, and Gilliam Autism Rating Scales; GARS), and Clinical Global linpresssions (CGI) completed by parents. At baseline and eight-week testing, all children underwent the CARS, GARS, EOWPVT, ROWPVT, and CGI. Schopler, E., Reichler, R. J., Renner, B. R. The Childhood Autism Rating Scale: CARS. Los Angeles, Calif.: Western Psychological Sciences 1988. Gilliam, J. E. The Gilliam Autism Rating Scale: GARS. Austin, Tex.: Pro-Ed Inc. 1995. Gardner, M. F. Receptive One-Word Picture Vocabulary Test: ROWPVT. Novato, Calif.: Academic Therapy Publications 1985. Gardner, M. F. Expressive One-Word Picture Vocabulary Test (Revised): EOWPVT-R. Novato, Calif.: Academeic Therapy Publication 1990. Children were tested with their parents in the room of a pediatric neurology clinic in a room dedicated to assessment. Parents signed informed written consent (approved by the Lake Forest Hospital Institutional Review Board) before being randomly assigned to either active agent or placebo, and reporting of adverse events was explained per office emergency policy. Because of our prior experience with the substance in an open-label format, we were able to caution regarding the following potential adverse events: hyperactivity, excitability
Both placebo and active substance were identical in powdered appearance, without taste or smell. All pills were contained by a gelatin capsule; parents were instructed to mix the powder with either food or drink. Dosage of carnosine was 400 mg by mouth twice a day.
Every two weeks, parents faxed a CGI regarding their child. The CGI was a 5 point rating scale covering the following domains: (1) Socialization, interaction with others during play, (2) Spontaneous, expressive language or vocalizations, (3) Attention span, “focus”/eye contact, alertness level, (4) Agitation and hyperactivity or lethargy, energy level, Petroff, O. A. C. et al., Neurology 2001; 56:709-715. Coordination, body use, gross motor movements, (6) Anxiety, rigidity, preservation, adaptation to change. A score of “0” indicated “No Change”, a score of “5” indicated a “Great improvement.” Parents were not allowed to refer back to faxes from the prior two week period, so that each rating was essentially “blinded” to the week before. An overall baseline CGI was then compared with an ending CGI.
Thirty-one children (21 M, mean age=7.45; range 3.2-12.5) meeting inclusion criteria were enrolled in an 8 week, double-blind placebo-controlled study. Children were entered randomly into one of two groups: Group I (n=17) received a placebo for the first 8 weeks, while Group II (n=14) received the active substance. Children were assessed at Baseline in the following domains: […]

[5] = tested on: rat model genetically predisposed to audiogenic epilepsy; settings: carnosine injected prior to acoustic stress; Stvolinsky and Dobrota 2000; cited from earlier work
animals = settings: both decreasing mortality and improving recovery; Stvolinsky and Dobrota 2000; cited from earlier work
adult clinical trials = settings: among 691 cases of adult clinical trials; Matsukura and Tanaka 2000; cited from earlier work
[6] = 8-Week on carnosine 400 mg twice a day, n = 14, Mean (SD), vs baseline .01, vs placebo NS
[7] = 8-Week on carnosine 400 mg twice a day, n = 14, Mean (SD), vs baseline NS, vs placebo NS
[8] = Baseline, active carnosine group n = 14, Mean (SD)

For `NCCCC(=O)N[C@@H](Cc1cnc[nH]1)C(=O)O` [homocarnosine, γ-Aminobutyryl-L-histidine], which “convulsions under hyperbaric oxygen” value [1] is on record?
Its value is “protects against the convulsions”.

What about the rate of hydrolysis (carnosinase) of the same compound?
The rate of hydrolysis was “negligible”.

With β-Alanlyl-L-histidine [carnosine] as the compound, how does the “amount of speech and language and level of maturity of speech” value [2] read?
Its value is “increased”.

And the cognitive processing speed [2]?
Its cognitive processing speed is “increase”.

And the language skills [2]?
The language skills was “increase”.

What about the motor skills [2] of the same compound?
The motor skills was “improved”.

And the receptive language [2]?
The receptive language was “improved”.

And the “patients with improved seizure frequency (of 7)” value [3]?
The value was 7 patients.

What about the “children with decreased frequency of polyspikes” value ([3]; 7 children) of the same compound?
The value was 2 children.

And the “children with improved background and decreased electrographic slow-spike and wave activity” value ([3]; 7 children)?
The value was 2 children.

And the “children with improved secondarily generalized spike-wave activity” value ([3]; 7 children)?
Its value is 1 child.

What about the “children with no significant EEG changes” value ([3]; 7 children) of the same compound?
Its value is 2 children.

And the “children with documented improved EEG findings (of 7)” value ([3]; add-on)?
Its value is 5 children.

What about the “patients with reported improvements in global cognition, behavior, and language function (of 7)” value ([3]; not evaluated formally) of the same compound?
Its value is 7 patients.

And the CGI ([4]; 8-Week on carnosine 400 mg by mouth twice a day, n = 14, Mean (SD), vs baseline .06, vs placebo NS)?
Its CGI is 16.39 (4.36).

And the GARS [4, 6]?
Its GARS is 44.36 (14.94) and 44.35 (14.93).

What about the “GARS Socialization Scale” value [4, 6] of the same compound?
Its value is 13.36 (6.58).

And the “ROWPVT (age-adjusted)” value [4, 6]?
The value was 47.85 (28.37) and 47.86 (28.37).

And the “ROWPVT (raw)” value [4, 6]?
Its value is 44.64 (26.56).

And the “GARS Communication Scale” value ([4]; 8-Week on carnosine 400 mg twice a day, n = 14, Mean (SD), vs baseline .03, vs placebo NS)?
The value was 18.14 (6.27).

And the “GARS Behavior Scale” value ([4]; 8-Week on carnosine 400 mg twice a day, n = 14, Mean (SD), vs baseline .04, vs placebo NS)?
The value was 12.85 (5.95).

What about the CARS ([4]; 8-Week on carnosine 400 mg twice a day, n = 14, Mean (SD), vs baseline .07, vs placebo NS) of the same compound?
The CARS was 29.75 (7.53).

And the “EOWPVT (age-adjusted)” value [4, 7]?
The value was 43.78 (28.22).

What about the “EOWPVT (raw)” value [4, 7] of the same compound?
Its value is 37.28 (25.66).

What about the CARS [4, 8] of the same compound?
The CARS was 31.71 (6.55).

What about the CGI [4, 8] of the same compound?
Its CGI is 14.50 (3.65).

What about the “EOWPVT (age-adjusted)” value [4, 8] of the same compound?
The value was 40.71 (23.44).

And the “EOWPVT (raw)” value [4, 8]?
The value was 35.36 (20.87).

What about the GARS [4, 8] of the same compound?
The GARS was 55.50 (16.35).

What about the “GARS Behavior Scale” value [4, 8] of the same compound?
The value was 15.71 (6.65).

And the “GARS Communication Scale” value [4, 8]?
Its value is 21.64 (7.99).

And the “GARS Socialization Scale” value [4, 8]?
Its value is 18.14 (6.30).

What about the “ROWPVT (age-adjusted)” value [4, 8] of the same compound?
The value was 40.57 (24.55).

What about the “ROWPVT (raw)” value [4, 8] of the same compound?
Its value is 38.00 (23.68).

What about the “side effects reported by parents” value ([4]; alleviated by decreasing the dose) of the same compound?
Its value is “only sporadic hyperactivity”.

And the “discontinuation of the study due to side effects” value ([4]; carnosine 400 mg twice a day, 8 weeks)?
The value was “Not a single child”.

What about the “receptive speech, socialization, and behavior in children with autistic spectrum disorders” value ([4]; supplementation with carnosine, 8 weeks) of the same compound?
The value was “significantly improve”.

And the “Fax ratings (week 2 vs. week 6)” value ([4]; week 2 (column Baseline))?
The value was 2.03 (2.24).

And the “Fax ratings (week 2 vs. week 6)” value ([4]; week 6 (column 8-Week), vs week 2 .04)?
Its value is 4.92 (5.69).

And the audiogenic seizures [5]?
Its audiogenic seizures is “moderation of such seizures”.

What about the “resistance towards ionizing radiation, hypobaric hypoxia, and supercooling” value (animals) of the same compound?
Its value is “enhances the resistance”.

And the symptomatic side effects (adult clinical trials)?
Its symptomatic side effects is “no symptomatic side effects”.
